Laboratory results as given in a melting point compilation (Tetko et al.).

melting point [°C]	SMILES
133	COc1c2c(cc3oc(=O)ccc13)OC(C)(C)C=C2
261	C=C1C(=O)C23C4CC5C(C)(C)CCC(O)C5(C(OC)O4)C2C(O)CC1C3O (stereo not drawn)
95	O=Cc1ccc(Br)cn1
117	COc1ccc(-c2nn(-c3ccccc3)cc2CNc2ccc(F)c(Cl)c2)cc1
167	C#CC1(O)CCC2C3C(C)CC4=C(CCC(=O)C4)C3CCC21C (stereo not drawn)
18	CCC(C)Nc1ccc(NC(C)CC)cc1 (stereo not drawn)
217	CNc1ccc(O)c2c1C(=O)c1c(O)ccc(NC)c1C2=O
205 to 207	CC(O)C1(C)CCC2=C1CCC1C2CCC2(C)CC(O)CCC12C (stereo not drawn)
213	O=[N+]([O-])c1ccc(-c2nn3c(C(F)(F)F)nnc3s2)cc1
60	O=C1c2ccccc2C(=O)N1CCCCCBr
284 to 285	Cc1cc(-c2ccccc2)nc2cc3nc(-c4ccccc4)cc(C)c3cc12
210	CC(C)(C)c1cc(C(C)(C)C)c2oc3c(C(C)(C)C)cc(C(C)(C)C)c(=O)c-3nc2c1
45	CC(C)OC(=O)COc1cc(Cl)c(Cl)cc1Cl
207 to 209	CCOC(=O)C1=C(C)NC(=S)NC1c1ccccc1 (stereo not drawn)
201	CC(=O)C1C(=O)C2(C)CCC1C2(C)C (stereo not drawn)
13.5	O=C(CCc1ccccc1)CCc1ccccc1
38	O=[N+]([O-])c1ccc(S(=O)(=O)Cl)cc1Cl
302	Cn1c(=O)c(C2=NNC(=O)C2=NNc2ncccn2)c(O)c2ccccc21
< 25	FCOC(C(F)(F)F)C(F)(F)F
202 to 207	c1ccc2cc3c(cc2c1)oc1ccccc13
220	CC(=O)Nc1ccc(S(N)(=O)=O)cc1
139	O=C(O)c1cc(Cl)nnc1Cl
148	O=C(/C=C/c1ccc(-c2ccc(Cl)cc2)o1)c1ccco1
184	Nc1c2c(nc3ccccc13)CCCC2

melting point [°C]	SMILES
174	Nc1cc(Cl)nc(Cl)c1
139	Oc1cc(C(F)(F)F)nc2c(Cl)cccc12
88 to 91	CSC(SC)=C(C#N)C(=O)c1cccc(Cl)c1
10	NCCCNCCN
-67	CCCCCC(=O)OCC
30	Nc1c(F)cc(F)cc1Cl
29	CC(=O)OC1CC2CCC1(C)C2(C)C (stereo not drawn)
106 to 108	COc1ccc(C(=O)C=Cc2ccccc2)c(O)c1
153	Nc1ccc(C(=O)Oc2ccccc2)c(O)c1
206	CC1(C)CC(=O)C(=Cc2ccc(-c3ccc(Cl)cc3)o2)C(=O)C1
146	CC(=O)N1CCN(c2ccc(OCC3COC(Cn4ccnc4)(c4ccc(Cl)cc4Cl)O3)cc2)CC1 (stereo not drawn)
203	Nc1nnc(-c2ccccc2)c(Nc2ccc(Br)cc2)n1
139	OC(Cc1ccccc1)C(Cc1ccccc1)=NNc1ccc(Br)cc1 (stereo not drawn)
109 to 113	O=C(O)c1ccccc1CSc1ccccc1
211	CCOc1ccc(C(NC(=O)c2ccccc2)NC(=O)c2ccccc2)cc1OC
142	OC(c1c2ccccc2cc2ccccc12)C(F)(F)F (stereo not drawn)
112	CC(C)(C)NC(=O)COC(=O)c1ccccc1
167	NNC(=S)Nc1ccc(C(F)(F)F)cc1
194	CC(C)(C)N(NC(=O)c1ccccc1)C(=O)c1c(F)cccc1F
160	O=C1Cc2cc(S(=O)(=O)Cl)ccc2N1
-34.1	COc1ccccc1C
290	Nc1ccc2c(c1N)C(=O)c1ccccc1C2=O
90	O=C(CCl)c1cccc(C(=O)CCl)c1
41 to 42	Cn1nc(CCl)cc1-c1cccs1

melting point [°C]	SMILES
107 to 108	Cc1ccc(-c2ccc(S(=O)(=O)Cl)cc2)cc1
85 to 86	Cc1nc(-c2ccccc2)ncc1CO
120 to 121	O=S(=O)(c1ccccc1)n1cc(Br)c2ccccc21
224 to 229	COc1ccc(Br)cc1C=CC(=O)O
153	CC1=C(C(=O)OCC(C)C)C(c2ccccc2)NC(=S)N1 (stereo not drawn)
110	CC(C)(C)C1=NN(c2ccccc2)C(=O)C1
89 to 90	CCOC(=O)c1c(N)sc2c1CCCCC2
184 to 185	CCCOC(=O)C1=C(C)NC(=O)NC1c1ccc2c(c1)OCO2 (stereo not drawn)
300	NC(CCCC(N)C(=O)O)C(=O)O (stereo not drawn)
257 to 259	N#CCc1c(C#N)c(N)nc(Cl)c1C#N
47 to 49	Cc1nnc(SCc2ccccc2)n1N=Cc1ccc(N(C)C)cc1
140 to 142	c1ccc(-c2csc3nc4ccccc4n23)cc1
110	CCCCCCNC(=O)n1cc(F)c(=O)[nH]c1=O
61	CSC(SC)=C(C(C)=O)C(C)=O
39	COc1cc(C)cc(OC)c1O
129 to 130	O=C(CCc1ccccc1)/C(=N\O)c1ccccc1
181 to 182	NNC(=O)CSC1CS(=O)(=O)c2cc([N+](=O)[O-])ccc21 (stereo not drawn)
238	Clc1ccc(-c2nc3c4ccccc4ccn3n2)cc1
-60	CCC(=O)OC(C)c1ccccc1 (stereo not drawn)
46 to 49	OCc1cccc(-c2cccs2)c1
93 to 94	O=S(=O)(Cl)c1sccc1C1OCCO1
196 to 203	O=[N+]([O-])c1ccccc1SC1OC(CO)C(O)C(O)C1O (stereo not drawn)
126 to 128	CC(=O)Nc1cc(Cl)c(Cl)cc1[N+](=O)[O-]
163 to 166	CC(C)(C)OC(=O)N1CCN(C(=O)OCC2c3ccccc3-c3ccccc32)C(C(=O)O)C1 (stereo not drawn)

SMILES	melting point [°C]
CC(CN1CCOCC1)C(C(=O)N1CCCC1)(c1ccccc1)c1ccccc1 (stereo not drawn)	180
CC12CCC3C(CCC4CC(O)CCC43C)C1CCC2=O (stereo not drawn)	185
COc1ccc2[nH]cc(CCN)c2c1	122
CS(=O)(=O)NC(=O)c1cc(Oc2ccc(C(F)(F)F)cc2Cl)ccc1[N+](=O)[O-]	220
NC(=S)C(N)=S	170
BrC(Br)c1ccccc1C(Br)Br	116
O=C(OC(=O)C(Cl)Cl)C(Cl)Cl	29
CC1(C)C(C=C(Cl)Cl)C1C(=O)OCc1cccc(Oc2ccccc2)c1 (stereo not drawn)	34.5
O=C(Nc1ccccc1)Nc1ccnc(Cl)c1	167
CCS(=O)CCSP(=O)(OC)OC (stereo not drawn)	-49
Cc1ccc(-c2nc3ccc(C)cn3c2CC(=O)N(C)C)cc1	196
Nc1c([N+](=O)[O-])ccc(Oc2ccccc2)c1Cl	81.5
CCCC(CC)C1(CC)C(=O)NC(=O)NC1=O (stereo not drawn)	122
Brc1cccc2c1Oc1cccc(Br)c1O2	207
CCCCCF	-120
NC(Cc1ccc(N(CCCl)CCCl)cc1)C(=O)O (stereo not drawn)	182
